Experimental data taken from article PMC7347136 (PLoS ONE, 2020).
Where two headings read alike, the source gives them in different places.

Legend:
[1] = tested on: THP-1; test: Resazurin reduction cell viability assay; format: cell-based, human; settings: Homo sapiens, THP-1, 72 h, THP-1; value the 7 x 7 combination matrix spans; 72 h; read-out: IC50 value of each compound (single agent)
Experimental: (§1) Solid tumor cell lines were seeded in 100 μl medium into 96-well plates at an appropriate cell number determined by a cell dilution assay (Cal51–2000 cells/well; Colo205, MCF10A and 184A1–3000 cells/well and MDA-MB-468, HCC1954–4000 cells/well). AML suspension cells were seeded in 96-well plates at approximately 3000 cells per well. Cells were incubated overnight at 37°C, 5% CO2. The following day, 100 μl fresh medium containing increasing concentrations of appropriate compound was added and the cells were incubated for up to 72 h at 37°C, 5% CO2. For pulse treatment of solid (adherent) tumor cell lines, medium was aspirated and replaced with fresh drug-free medium. For pulse treatment of suspension lines, plates were centrifuged at 478 xg for 5 min at the end of the incubation period with compound, medium containing compound was carefully aspirated and replaced with fresh compound-free medium. A total of 72 h after the start of treatment, 20 μl of a 10X stock of resazurin sodium salt (Sigma-Aldrich, Dorset, UK) prepared in medium was added to the cells and incubated for up to 3 h. […] was measured on the Wallac Victor plate reader (Cambridge, UK) at 544–595 nm. IC50/70/90 calculations were determined in XLFit.

[2] = tested on: Colo205; test: Resazurin reduction cell viability assay; format: cell-based, human; settings: 72 h continuous treatment, read-out: Colo205 IC50 ± SD
Experimental: as §1

[3] = tested on: subcutaneous EOL-1 tumors; test: EOL-1 human eosinophilic leukemia xenograft model; format: in vivo, SCID mice
Experimental: Female athymic CB-17 SCID (Harlan Sprague-Dawley) mice between 6–7 weeks of age weighing approximately 22 grams were housed in a 12-h light-dark cycle at 70–74°F (21–23°C) and 40–60% humidity. Animals were fed water ad libitum (reverse osmosis, 2 ppm Cl2) and an irradiated standard rodent diet (Teklad 2919) consisting of 19% protein, 9% fat, and 4% fiber. Mice were injected subcutaneously into the right flank with 1x10^7 EOL-1 cells in 100 μl of a 1:1 HBSS:Matrigel solution. When tumors reached approximately 125–250 mm^3, animals were matched by tumor volume and then randomized into treatment and control groups before dosing was initiated. […] Cytarabine, also known as cytosine arabinoside (AraC), was administered by daily ip injection for 5 days only. Agent toxicity was assessed by effects on body weight and clinical signs. Animals were weighed twice weekly using a digital scale (Ohaus SP601). Beginning on Day 0, tumor dimensions were measured twice weekly by digital caliper (Fowler Ultra-Cal IV); tumor volume was calculated using the formula TV = width^2 x length x 0.52. […] Statistical differences in tumor volume were determined using a two-tailed One-Way Analysis of Variance (ANOVA) followed by the Dunnett’s multiple comparisons test comparing treated groups with control. For animal welfare the following methods were used: (a) methods of sacrifice: isoflurane anesthesia followed by cervical dislocation; (b) methods of anesthesia and/or analgesia: isoflurane anesthesia and (c) efforts to alleviate suffering: carprofen if animal veterinarian decides necessary or euthanasia.

SMILES	IC50 [1] [nM]	IC50 ([2]; Homo sapiens, COLO 205, 72 h) [nM]	other results
CC1(C)CCC(CN2CCN(c3ccc(C(=O)NS(=O)(=O)c4ccc(NCC5CCOCC5)c([N+](=O)[O-])c4)c(Oc4cnc5[nH]ccc5c4)c3)CC2)=C(c2ccc(Cl)cc2)C1 [ABT-199, reference compound]	60		
CC1(C)CCC(c2ccc(Cl)cc2)=C(CN2CCN(c3ccc(C(=O)NS(=O)(=O)c4ccc(N[C@H](CCN5CCOCC5)CSc5ccccc5)c(S(=O)(=O)C(F)(F)F)c4)cc3)CC2)C1 [ABT-263, reference compound]	270		
CN(C)CC[C@H](CSc1ccccc1)Nc1ccc(S(=O)(=O)NC(=O)c2ccc(N3CCN(Cc4ccccc4-c4ccc(Cl)cc4)CC3)cc2)cc1[N+](=O)[O-] [ABT-737, reference compound]	430		
CN1CC[C@H](c2c(O)cc(O)c3c(=O)cc(-c4ccccc4Cl)oc23)[C@H](O)C1 [Alvocidib (flavopiridol), reference compound]		129	IC50 [2]: 130 ± 20 nM
CC[C@H](Nc1nc(NCc2cccnc2)c2ncn(C(C)C)c2n1)[C@@H](C)O [CCT068127]		820	
Nc1ccn([C@@H]2O[C@H](CO)[C@@H](O)[C@@H]2O)c(=O)n1 [cytarabine, cytosine arabinoside, reference compound]			transient body weight loss ([3]; 100 mg/kg i.p.): 3%; tumor growth inhibition (TGI) ([3]; 100 mg/kg i.p. days 1-5, Day 19): 38%; median TGI ([3]; 100 mg/kg i.p. days 1-5, day 9): 41%
